# Laboratory results taken from PMC12169680, “Design and Mechanistic Analysis of a Potent Bivalent Inhibitor of Transthyretin Amyloid Fibrillogenesis” (Journal of Medicinal Chemistry, 2025).
# Key:
# [1] = target: T1, isolated recombinant wild-type TTR (Homo sapiens, UniProt P02766); assay: Displacement of 125I-T4 from isolated wild-type TTR; type: binding; conditions: for IC50 in buffer (bIC50) compared to mds84, in words: isolated TTR; for IC50: ligand concentration reducing binding of 125I-thyroxine by isolated recombinant wild-type TTR by 50%, mean ± SD, read-out: bIC50
# T1 construct: Native TTR is a noncovalent homotetramer of β-sheet-rich 127-residue protomers; His6 (N); TEV cleavage site (N); made in house; host or cells: E. coli BL21 (DE3)
# Procedure: Competition of ligands with thyroxine for binding by TTR was assayed quantitatively by a previously described procedure.
# V122I TTR [2] = target: T2, V122I TTR (Homo sapiens, UniProt P02766, V142I); assay: Inhibition of mechano-enzymatic fibrillogenesis (ThT); type: biochemical; conditions: for antifibrillogenic activity, in words: V122I TTR
# T2 construct: 1-127; His6 (N); TEV cleavage site (N); made in house; host or cells: E. coli BL21 (DE3)
# Procedure: To test their potency as inhibitors of TTR fibril formation, the 15 ligands were evaluated for their ability to inhibit the mechano-enzymatic mechanism of fibrillogenesis of V122I TTR, which is one of the most common amyloidogenic variants, , causing a disease with severity intermediate between the wild-type and other rare, more aggressive types of amyloidosis. […] Biochemical activity of ligands together with their physicochemical properties (i.e., cLogD, TPSA) were taken into consideration and B26 was finally selected as the most promising lead for further studies (Figure A). […] Prototype mds84 was also included for comparison. […] Although higher molar ratios of the monovalent ligands did inhibit fibrillogenesis, this cannot be replicated in vivo because the negative cooperativity of TTR cannot be overcome at feasible drug dosage. ,
# Recombinant V122I TTR at 0.5 mg/mL (9 μM) in PBS, pH 7.4 was preincubated (37 °C for 30 min) with an equimolar concentration of ligand (or DMSO alone) before adding trypsin (5 ng/μL). Protein fibrillogenesis was carried out in glass vials stirred at 1400 rpm (IKA magnetic stirrer), 37 °C and spectrophotometric turbidity at 400 nm was used to monitor fibril formation over time until it reached a plateau at 96 h.
# Analysis of amyloid material harvested from each sample at the end of the fibrillogenesis was carried out using Thioflavin T (ThT) emission fluorescence and Congo red staining. For these analyses, samples were centrifuged 20 min at 11,600g and pellets were thoroughly rinsed with PBS to remove nonbound ligand, resuspended with 100 μL PBS, pH 7.4, containing 10 μM Thioflavin T (ThT) in Costar 96-well black-wall plates. Bottom fluorescence values (excitation 440 nm, emission 480 nm) were recorded using a BMG LABTECH FLUostar Omega plate reader. Each value was normalized to the ThT signal of the TTR sample without ligand.
# [3] = target: T3, wild-type TTR in normal human plasma (Homo sapiens, UniProt P02766); assay: Displacement of 125I-T4 from TTR in normal human plasma; type: binding; conditions: for binding to TTR in plasma, in words: normal human plasma
# T3 construct: TTR in whole plasma, from individuals homozygous for wild-type TTR; from tissue; host or cells: whole human plasma from individuals homozygous for wild-type TTR
# TTR = target: T4, TTR (Homo sapiens, UniProt P02766); assay: NMR saturation transfer difference (STD) experiments to estimate k off; type: binding; conditions: no STD signal observed by increasing the saturation time
# T4 construct: Native TTR is a noncovalent homotetramer of β-sheet-rich 127-residue protomers; His6 (N); TEV cleavage site (N); made in house; host or cells: E. coli BL21 (DE3)
# Excerpt: However, the prototype mds84 was unsuitable for drug development due to its large and highly hydrophobic structure. The bivalent compound B26 represents the evolution of such TTR ligands. Compared to the palindromic prototype, the molecule has reduced size and reduced lipophilicity as a consequence of the removal of one of the aryl rings from headgroup B; introduction of an oxygen in the six-atom linker; replacement of the benzoyl group in headgroup A with 4-carboxy pyridine. Despite these structural changes, the ligand retains the same pseudoirreversible binding of mds84. […] Therefore, the B26 ligand overcomes the pharmaceutical limitations of negative cooperativity and, at the same time, retains the biomolecular property of very strong inhibition of TTR fibrillogenesis by simultaneously occupying the two ligand binding sites. Each of them is able to accommodate two aryl rings, and the one that penetrates deeper into the cavity is anchored to the protein by two halogen substituents. We have designed a bivalent molecule in which one-half has the properties of a classical analogue of the thyroid hormone, and the second half, connected through a chemical linker, is represented by only one aryl ring with halogen substituents.
# [4] = target: T5, recombinant wild-type TTR (Homo sapiens, UniProt P02766); assay: Stopped flow kinetics of ligand binding by fluorescence emission; conditions: for rate constant k of TTR intrinsic fluorescence quenching / very early change in TTR fluorescence during dead time: 1 μM TTR; for rate constant k of TTR intrinsic fluorescence quenching: 1 μM ligand, 37 °C, PBS pH 7.4, first second; for very early change in TTR fluorescence during dead time: dead time <5 ms, equimolar ligand
# T5 construct: Native TTR is a noncovalent homotetramer of β-sheet-rich 127-residue protomers; His6 (N); TEV cleavage site (N); made in house; host or cells: E. coli BL21 (DE3)
# Procedure: Interaction of ligands in the TTR thyroxine binding pockets induces quenching of intrinsic fluorescence emission.
# Kinetics of binding within the first second of reaction was evaluated with an SFM 3000 stopped flow device coupled to a MOS500 spectrometer with a fluorescence detection system (Bio Logic, Claix, France) and a cell path length of 1.5 mm (dead-time <5 ms). Total fluorescence emission over 325 nm, using a cut off filter, was monitored after excitation at 280 nm at 37 °C and 1 μM recombinant wild-type TTR in the presence of 1 μM of ligand in PBS pH 7.4 at a final concentration of 0.9% DMSO. Kinetic data were acquired as the average of at least 3 experimental mixings and fitted using the following equation y(t)=q+Aexp(−kt) where y(t) is the observed fluorescence q the offset of the baseline. A and k are, respectively, amplitude and rate constant of the observed fluorescence change.
# V122I TTR [5] = target: T2, V122I TTR; assay: Electrophoretic analysis of V122I TTR proteolysis before and after mechano-enzymatic aggregation; type: biochemical; conditions: SDS-PAGE, trypsin, 96 h aggregation
# Procedure: Figure S2. Effect of B26 on proteolysis of V122I TTR. Homogenous SDS-12% PAGE under reducing conditions of 9 µM V122I TTR before (a) and after 96 h aggregation in the presence of 0 (b), 4.5 µM (c), 9 (d), 18 (e) and 36 µM (f) of B26 respectively in PBS pH 7.4 at 37°C. Aggregation was carried out under fluid agitation and addition of trypsin at an enzyme: substrate ratio of 1:200. LMW marker […]
# Rat pharmacokinetics = type: in vivo; conditions: data not shown
# [6] = residual V122I TTR fibrillar aggregation with equimolar ligand, ThT emission normalized to protein without ligand, mean ± SD
# [7] = supplementary CSV, residual V122I TTR aggregation, equimolar ligand
# [8] = ligand concentration reducing binding of 125I-thyroxine by wild-type TTR by 50% in normal human plasma, mean ± SD
SMILES,"IC50 in buffer (bIC50) compared to mds84, in words [1]",IC50 [1] [µM],"antifibrillogenic activity, in words (V122I TTR [2]; equimolar ligand)",Agg (%) (V122I TTR [2]; [6]),Agg (%) (V122I TTR [2]; [7]),"binding to TTR in plasma, in words [3]","IC50 [3, 8] [µM]",rate constant k of TTR intrinsic fluorescence quenching [4] [s^–1],very early change in TTR fluorescence during dead time [4],further results
"O=C(O)COCCOCCOCCOc1c(Cl)cc(Nc2ccccc2C(=O)O)cc1Cl [B5, 2-[4-[2-[2-[2-(Carboxymethoxy)-ethoxy]-ethoxy]-ethoxy]-3,5-dichloro-anilino]-Benzoic Acid]",higher values of IC50,5 ± 0.4,Antifibrillogenic activity was reduced,28.8 ± 13.4,28.8±13.4,reduced binding,–,–,–,–
"O=C(O)CCOCCCOCCCOCCCOc1c(Cl)cc(Nc2ccccc2C(=O)O)cc1Cl [B6, 2-[4-[3-[3-[3-(2-Carboxy-ethoxy)-propoxy]-propoxy]-propoxy]-3,5-dichloro-anilino]-Benzoic Acid]",higher values of IC50,1.2 ± 0.41,Antifibrillogenic activity was reduced,12 ± 4.4,12±4.4,reduced binding,40 ± 13,–,–,–
"O=C(O)CCc1cc(Cl)c(OCOCCCOc2c(Cl)cc(Nc3ccccc3C(=O)O)cc2Cl)c(Cl)c1 [B8, 2-[4-[3-[[4-(2-Carboxyethyl)-2,6-dichloro-phenoxy]-methoxy]-propoxy]-3,5-dichloro-anilino]-Benzoic Acid]",higher values of IC50,2.1 ± 0.21,Antifibrillogenic activity was reduced,12 ± 3.7,12±3.7,reduced binding,> 150,–,–,–
"O=C(O)CCc1cc(Cl)c(OCC/C=C/CCOc2c(Cl)cc(Nc3ccccc3C(=O)O)cc2Cl)c(Cl)c1 [B14, 2-[4-[(E)-6-[4-(2-Carboxyethyl)-2,6-dichloro-phenoxy]-hex-3-enoxy]-3,5-dichloro-anilino]-Benzoic Acid]",–,0.08 ± 0.008,Antifibrillogenic activity was reduced,13 ± 3.2,13±3.2,–,11 ± 2.9,–,–,–
"O=C(O)CCc1ccc(OCCC(O)C(O)CCOc2c(Cl)cc(Nc3ccccc3C(=O)O)cc2Cl)c(Cl)c1 (stereo not drawn) [B21, 2-[4-[6-[4-(2-Carboxyethyl)-2-chloro-phenoxy]-3,4-dihydroxy-hexoxy]-3,5-dichloro-anilino]-Benzoic Acid]",–,0.07 ± 0.004,reduced potency,15 ± 2.8,15±2.8,reduction in the observed potency,4.1 ± 2.1,–,–,–
"O=C(O)CCc1cc(Cl)c(OCCCOCCOc2c(Cl)cc(Nc3cnncc3C(=O)O)cc2Cl)c(Cl)c1 [B24, 5-[4-[2-[3-[4-(2-Carboxyethyl)-2,6-dichloro-phenoxy]-propoxy]-ethoxy]-3,5-dichloro-anilino]-Pyridazine-4-Carboxylic acid]",–,0.1 ± 0.005,–,13 ± 8.2,13±8.2,slight reduction of binding potency,7.9 ± 1.4,–,–,–
"O=C(O)CCc1cc(Cl)c(OCCCOCCOc2c(Cl)cc(Nc3cnccc3C(=O)O)cc2Cl)c(Cl)c1 [B26, 3-[4-[2-[3-[4-(2-Carboxyethyl)-2,6-dichloro-phenoxy]-propoxy]-ethoxy]-3,5-dichloro-anilino]-Pyridine-4-Carboxylic Acid]",–,–,excellent antifibrillogenic activity,4.2 ± 1.9,4.2±1.9,preservation of the properties,–,22 ± 0.55,approximately 8%,"k off (TTR): very slow; quenching reaction / penetrance faster than mds84 ([4]; ratio of rate constants): 5 fold; quenching reaction slower than tafamidis ([4]; ratio of rate constants): at least 2 fold; reduction of TTR intrinsic fluorescence ([4]; within the first second, equimolar protein and ligand): ~30%; effect on proteolysis of V122I TTR (V122I TTR [5]): inhibited proteolysis"
O=C(O)CCc1cc(Cl)c(OCCCCCCCOc2c(Cl)cc(Nc3ccccc3C(=O)O)cc2Cl)c(Cl)c1 [compound 1],–,–,–,–,–,–,–,–,–,rat pharmacokinetics compared with mds84 (Rat pharmacokinetics): much improved; IC50 ([3]; capacity to displace 125I-T4 from TTR in human plasma): 2 ± 0.2 µM
"O=C(O)c1ccccc1Nc1cc(Cl)c(OCCCCCCCOc2c(Cl)cc(Nc3ccccc3C(=O)O)cc2Cl)c(Cl)c1 [mds84, reference compound]",–,–,–,2.4 ± 0.30,2.4±0.30,–,19 ± 5.8,4.4 ± 0.44,3%,–
"O=C(O)c1ccc2nc(-c3cc(Cl)cc(Cl)c3)oc2c1 [tafamidis, reference compound]",–,–,–,–,–,–,–,49 ± 0.0016,approximately 8%,"inhibition of V122I TTR amyloid formation at equimolar ligand/protein, in words (V122I TTR [2]; 9 μM V122I TTR, equimolar concentration, bivalent vs monovalent ligands): significantly lower inhibitory effect"
